Source: ChEMBL document CHEMBL1153384, “Synthesis, antimalarial activity, and preclinical pharmacology of a novel series of 4'-fluoro and 4'-chloro analogues of amodiaquine. Identification of a suitable "back-up" compound for N-tert-butyl isoquine” (J Med Chem, 2009)
One block for each compound: values may come before it.

Experiments:
Plasmodium falciparum [1] = test: Antimalarial activity against chloroquine-sensitive Plasmodium falciparum 3D7; format: functional, organism-based
Cytochrome P450 2D6 = Cytochrome P450 2D6 (Homo sapiens, UniProt P10635); test: Inhibition of human CYP2D6; format: ADME
Sequence of Cytochrome P450 2D6 (P10635 whole entry): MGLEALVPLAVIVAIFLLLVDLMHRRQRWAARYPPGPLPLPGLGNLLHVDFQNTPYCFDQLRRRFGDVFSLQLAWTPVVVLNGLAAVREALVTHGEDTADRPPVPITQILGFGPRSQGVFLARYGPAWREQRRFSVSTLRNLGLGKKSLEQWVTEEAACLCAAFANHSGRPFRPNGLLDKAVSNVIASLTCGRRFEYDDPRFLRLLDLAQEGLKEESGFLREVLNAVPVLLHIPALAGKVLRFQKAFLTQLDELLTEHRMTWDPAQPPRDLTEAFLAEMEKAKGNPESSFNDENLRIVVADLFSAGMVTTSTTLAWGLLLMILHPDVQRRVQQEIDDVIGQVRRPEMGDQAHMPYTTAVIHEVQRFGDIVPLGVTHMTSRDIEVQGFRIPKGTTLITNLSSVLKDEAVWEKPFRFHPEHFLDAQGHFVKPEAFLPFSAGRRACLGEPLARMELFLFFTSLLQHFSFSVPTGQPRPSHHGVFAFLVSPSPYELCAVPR

Cytochrome P450 2C8 = target: T1, Cytochrome P450 2C8 (Homo sapiens, UniProt P10632); test: Inhibition of human CYP2C8; format: ADME
T1 sequence (P10632 whole entry): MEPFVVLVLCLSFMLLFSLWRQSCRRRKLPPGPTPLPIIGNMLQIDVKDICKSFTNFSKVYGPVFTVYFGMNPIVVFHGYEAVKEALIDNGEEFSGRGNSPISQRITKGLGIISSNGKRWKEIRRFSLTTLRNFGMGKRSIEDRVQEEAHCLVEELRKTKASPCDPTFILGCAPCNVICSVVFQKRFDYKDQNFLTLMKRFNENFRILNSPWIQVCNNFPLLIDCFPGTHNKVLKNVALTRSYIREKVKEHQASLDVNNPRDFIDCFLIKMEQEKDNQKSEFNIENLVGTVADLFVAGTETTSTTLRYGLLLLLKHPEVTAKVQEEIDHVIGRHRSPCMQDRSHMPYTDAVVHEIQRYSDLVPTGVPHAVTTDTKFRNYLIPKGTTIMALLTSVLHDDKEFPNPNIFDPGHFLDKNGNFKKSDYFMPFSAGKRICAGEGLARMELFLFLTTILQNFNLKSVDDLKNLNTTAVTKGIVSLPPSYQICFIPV

Cytochrome P450 3A4 [2] = target: T2, Cytochrome P450 3A4 (Homo sapiens, UniProt P08684); test: Inhibition of human CYP3A4 using DEF substrate; format: ADME
T2 sequence (P08684 whole entry): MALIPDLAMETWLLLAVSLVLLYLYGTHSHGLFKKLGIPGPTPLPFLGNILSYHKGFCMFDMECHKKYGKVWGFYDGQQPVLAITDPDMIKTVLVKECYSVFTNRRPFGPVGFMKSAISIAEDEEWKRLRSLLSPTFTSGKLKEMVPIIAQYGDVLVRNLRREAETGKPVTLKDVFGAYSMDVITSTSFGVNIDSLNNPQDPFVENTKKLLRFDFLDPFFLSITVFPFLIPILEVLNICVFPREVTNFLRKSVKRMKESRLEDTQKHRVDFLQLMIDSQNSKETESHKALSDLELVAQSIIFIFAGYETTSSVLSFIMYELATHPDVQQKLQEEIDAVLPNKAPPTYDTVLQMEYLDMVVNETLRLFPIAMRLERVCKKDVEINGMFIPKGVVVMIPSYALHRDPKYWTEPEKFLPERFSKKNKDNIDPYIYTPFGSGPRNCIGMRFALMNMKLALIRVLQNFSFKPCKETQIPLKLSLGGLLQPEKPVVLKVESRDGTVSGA

Cytochrome P450 2C9 = Cytochrome P450 2C9 (Homo sapiens, UniProt P11712); test: Inhibition of human CYP2C9; format: ADME
Sequence of Cytochrome P450 2C9 (P11712 whole entry): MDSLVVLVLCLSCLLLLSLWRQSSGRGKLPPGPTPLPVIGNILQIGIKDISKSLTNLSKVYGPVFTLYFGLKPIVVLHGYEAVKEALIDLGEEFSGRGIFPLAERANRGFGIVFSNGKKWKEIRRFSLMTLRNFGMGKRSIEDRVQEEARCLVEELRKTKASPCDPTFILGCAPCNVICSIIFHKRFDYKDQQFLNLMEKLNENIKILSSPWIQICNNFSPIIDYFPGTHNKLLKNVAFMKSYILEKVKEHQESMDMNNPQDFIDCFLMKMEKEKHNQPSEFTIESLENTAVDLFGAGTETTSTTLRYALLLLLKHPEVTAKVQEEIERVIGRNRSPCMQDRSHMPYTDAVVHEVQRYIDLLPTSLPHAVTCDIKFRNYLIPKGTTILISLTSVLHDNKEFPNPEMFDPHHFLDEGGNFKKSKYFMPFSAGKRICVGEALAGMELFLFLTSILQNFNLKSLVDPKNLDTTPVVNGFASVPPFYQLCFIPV

Cytochrome P450 3A4 [3] = target: T2, Cytochrome P450 3A4; test: Inhibition of human CYP3A4 using PPR substrate; format: ADME
Cytochrome P450 1A2 = target: T3, Cytochrome P450 1A2 (Homo sapiens, UniProt P05177); test: Inhibition of human CYP1A2; format: ADME
T3 sequence (P05177 whole entry): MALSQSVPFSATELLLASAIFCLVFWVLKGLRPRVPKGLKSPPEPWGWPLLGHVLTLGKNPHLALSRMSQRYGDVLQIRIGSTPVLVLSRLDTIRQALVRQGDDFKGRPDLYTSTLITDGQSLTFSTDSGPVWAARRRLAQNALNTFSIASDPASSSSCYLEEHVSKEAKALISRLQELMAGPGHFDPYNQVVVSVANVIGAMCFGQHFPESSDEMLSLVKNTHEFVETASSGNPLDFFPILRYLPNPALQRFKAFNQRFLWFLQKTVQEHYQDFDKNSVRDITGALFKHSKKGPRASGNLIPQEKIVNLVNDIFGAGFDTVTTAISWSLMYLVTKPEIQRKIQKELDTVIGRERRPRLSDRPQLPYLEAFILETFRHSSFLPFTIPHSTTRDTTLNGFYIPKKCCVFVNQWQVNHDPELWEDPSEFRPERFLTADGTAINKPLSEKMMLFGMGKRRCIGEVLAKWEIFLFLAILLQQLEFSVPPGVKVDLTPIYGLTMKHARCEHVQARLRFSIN

Cytochrome P450 2C19 = Cytochrome P450 2C19 (Homo sapiens, UniProt P33261); test: Inhibition of human CYP2C19; format: ADME
Sequence of Cytochrome P450 2C19 (P33261 whole entry): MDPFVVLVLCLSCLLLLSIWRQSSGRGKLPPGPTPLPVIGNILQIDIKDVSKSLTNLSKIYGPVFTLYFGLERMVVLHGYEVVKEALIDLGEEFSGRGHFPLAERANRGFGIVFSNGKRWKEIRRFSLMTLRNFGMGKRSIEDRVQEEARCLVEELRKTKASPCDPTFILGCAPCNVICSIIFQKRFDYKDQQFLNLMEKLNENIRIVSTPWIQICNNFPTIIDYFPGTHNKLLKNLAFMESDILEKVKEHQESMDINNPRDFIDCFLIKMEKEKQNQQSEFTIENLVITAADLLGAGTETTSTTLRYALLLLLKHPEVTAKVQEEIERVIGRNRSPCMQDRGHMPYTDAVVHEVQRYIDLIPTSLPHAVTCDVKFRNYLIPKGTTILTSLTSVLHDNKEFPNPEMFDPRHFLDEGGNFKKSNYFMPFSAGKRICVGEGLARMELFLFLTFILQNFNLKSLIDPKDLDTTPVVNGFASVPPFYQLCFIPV

Plasmodium berghei = test: Antimalarial activity as reduced parasitaemia against Plasmodium berghei ANKA infected CD1 mice (Mus musculus) perorally dosed daily over 4 days; format: functional; conditions: po, 96 h
[4] = Toxicity against Wistar rat hepatocytes after 6 hrs by trypan blue exclusion method; format: cell-based, Hepatocyte; conditions: read-out: TC50
Kidney [5] = test: Biodistribution in cannulated Wistar rat kidney assessed as [3H]labeled drug level at 54 umol/kg, iv after 5 hrs; format: ADME, organism-based; conditions: in vivo
[6] = Distribution coefficient, log D at pH 7.4; conditions: octanol/water
[7] = target: β-hematin formation (no protein target); test: Inhibition of beta-hematin formation as molar equivalent relative to hemin causing blockade in BHIA
Plasmodium falciparum [8] = test: Antimalarial activity against chloroquine-resistant Plasmodium falciparum TM6; format: functional, organism-based
Rattus norvegicus [9] = test: Metabolic stability in Wistar rat assessed as [3-(tert-Butylamino-methyl)-4-chloro-phenyl]-(7-chloro-1-oxy-quinolin-4-yl)-amine level at 54 umol/kg, iv administered as [3H]labeled drug after 5 hrs; format: ADME, organism-based; conditions: in vivo
[10] = Drug metabolism in cannulated Wistar rat assessed as biliary excretion of [3H]labeled drug level at 54 umol/kg, iv after 5 hrs; format: ADME, organism-based, Bile; conditions: in vivo
[11] = Biodistribution in cannulated Wistar rat bile assessed as [3H]labeled drug level at 54 umol/kg, iv after 5 hrs; format: ADME, organism-based; conditions: in vivo
Rattus norvegicus [12] = test: Metabolic stability in Wistar rat assessed as 2-Chloro-5-(7-chloro-quinolin-4-ylamino)-benzoic acid level at 54 umol/kg, iv administered as [3H]labeled drug after 5 hrs; format: ADME, organism-based; conditions: in vivo
Kidney [13] = test: Biodistribution in Wistar rat kidney assessed as [3H]labeled drug level at 54 umol/kg, iv after 24 hrs; format: ADME, organism-based; conditions: in vivo
Liver [14] = test: Biodistribution in cannulated Wistar rat liver assessed as [3H]labeled drug level at 54 umol/kg, iv after 5 hrs; format: ADME, organism-based; conditions: in vivo
Rattus norvegicus [15] = test: Drug elimination in Wistar rat assessed as [3H]labeled drug level at 54 umol/kg, iv after 24 hrs; format: ADME, organism-based; conditions: in vivo
Lung = test: Biodistribution in Wistar rat lung assessed as [3H]labeled drug level at 54 umol/kg, iv after 24 hrs; format: ADME, organism-based; conditions: in vivo
Rattus norvegicus [16] = test: Metabolic stability in Wistar rat assessed as 2-[2-Chloro-5-(7-chloro-quinolin-4-ylamino)-benzylamino]-2-methyl-propionic acid level at 54 umol/kg, iv administered as [3H]labeled drug after 5 hrs; format: ADME, organism-based; conditions: in vivo
[17] = Partition coefficient, log P of the compound; format: physicochemical; conditions: octanol/water
[18] = Therapeutic index, ratio of IC50 for Wistar rat hepatocytes to IC50 for Plasmodium falciparum HB3; format: cell-based, Hepatocyte
Plasmodium falciparum [19] = test: Antimalarial activity against chloroquine-sensitive Plasmodium falciparum HB3; format: functional, organism-based
Liver [20] = test: Biodistribution in Wistar rat liver assessed as [3H]labeled drug level at 54 umol/kg, iv after 24 hrs; format: ADME, organism-based; conditions: in vivo
Heme [21] = test: Binding affinity to heme assessed as binding constant for stepwise binding of 2 equivalent of drug to 1 molecule of heme in presence of 40% DMSO by UV-visible spectroscopy
Heme [22] = test: Binding affinity to heme assessed as binding constant for stepwise binding of 2 molecules of heme to 1 equivalent of drug in presence of 40% DMSO by UV-visible spectroscopy
Plasmodium yoelii [23] = test: Antimalarial activity as reduced parasitaemia against Plasmodium yoelii 17X infected CD1 mice (Mus musculus) perorally dosed daily for 4 days; format: functional; conditions: po, 96 h
Cytochrome P450 3A4 [24] = target: T2, Cytochrome P450 3A4; test: Inhibition of human CYP3A4 using DEF substrate
[25] = Oral bioavailability in mouse; format: ADME, organism-based; conditions: in vivo
Plasmodium yoelii [26] = test: Antimalarial activity as minimal concentration for parasite elimination at day 23 against Plasmodium yoelii 17X intravenously inoculated CD1 mice (Mus musculus) dosed 1 hrs post infection then daily for 4 days
Plasmodium yoelii [27] = test: In vivo antimalarial activity against Plasmodium yoelii NS peroral dosage; format: functional; conditions: po
[28] = Clearance in iv dosed mouse; format: ADME, organism-based; conditions: in vivo
[29] = Oral bioavailability in rat; format: ADME, organism-based; conditions: in vivo
[30] = Clearance in iv dosed rat; format: ADME, organism-based; conditions: in vivo
Plasmodium falciparum [31] = test: Antimalarial activity against […] Plasmodium falciparum PH3; format: functional, organism-based
Plasmodium falciparum [32] = test: Antimalarial activity against […] Plasmodium falciparum Dd2; format: functional, organism-based
Plasmodium falciparum [33] = test: Antimalarial activity against chloroquine-resistant Plasmodium falciparum K1
Plasmodium falciparum [34] = test: Antimalarial activity against chloroquine-resistant Plasmodium falciparum J164; format: functional, organism-based
Plasmodium falciparum [35] = test: Antimalarial activity against chloroquine-resistant Plasmodium falciparum TM4; format: functional, organism-based
Plasmodium falciparum [36] = test: Antimalarial activity against chloroquine-resistant Plasmodium falciparum V1/S; format: functional, organism-based; conditions: V1S

IC50 (Plasmodium falciparum [1]): 33.2 nM
Structure (SMILES): Fc1ccc(Nc2ccnc3cc(Cl)ccc23)cc1CN1CCCCC1

IC50 (Cytochrome P450 2D6): 6400 nM | IC50 (Cytochrome P450 2C8): 20000 nM | IC50 (Cytochrome P450 3A4 [2]): 24000 nM | IC50 (Cytochrome P450 2C9): 58000 nM | IC50 (Cytochrome P450 3A4 [3]; read-out: IC50): > 100000 nM | IC50 (Cytochrome P450 1A2): 28000 nM | IC50 (Cytochrome P450 2C19): 54000 nM
Structure (SMILES): CCNCc1cc(Nc2ccnc3cc(Cl)ccc23)ccc1O [DESETHYL AMODIAQUINE]

IC50 (Plasmodium falciparum [1]): 85.2 nM
Structure (SMILES): CCCN(CCC)Cc1cc(Nc2ccnc3cc(Cl)ccc23)ccc1F

IC50 (Plasmodium falciparum [1]): 277 nM
Structure (SMILES): CCCN(CCC)Cc1cc(Nc2ccnc3cc(Cl)ccc23)ccc1Cl

log Ks (Heme [21]): 4.4 | log Ks (Heme [22]): 4.1
Structure (SMILES): C=C[C@H]1CN2CC[C@H]1C[C@H]2[C@H](O)c1ccnc2ccc(OC)cc12

IC50 (Cytochrome P450 2D6): 7000 nM | IC50 (Cytochrome P450 2C8): 13000 nM | IC50 (Plasmodium falciparum [1]): 7.8 nM | IC50 (Cytochrome P450 3A4 [24]): > 100000 nM | IC50 (Cytochrome P450 2C9): 75000 nM | IC50 (Cytochrome P450 3A4 [3]): Active | bioavailability [25]: 21% | IC50 (Cytochrome P450 1A2): 23000 nM | clearance [28]: 219 mL/min/kg | bioavailability [29]: 17% | clearance [30]: 89.2 mL/min/kg | IC50 (Cytochrome P450 2C19): 39000 nM
Structure (SMILES): CCN(CC)Cc1ccc(Nc2ccnc3cc(Cl)ccc23)cc1O [ISOQUINE]
ED50 (Plasmodium yoelii [23]): 5.2 mg/kg | ED90 (Plasmodium yoelii [23]): 7.6 mg/kg | Activity (Plasmodium yoelii [26]): >40 mg/kg | ED50 (Plasmodium yoelii [27]): 1.6 mg/kg

IC50 [7]: 1.65 molar ratio
Structure (SMILES): CC(C)(C)NCc1cccc(Nc2ccnc3cc(Cl)ccc23)c1

IC50 (Plasmodium falciparum [1]): 27.3 nM
Structure (SMILES): CCN(CC)Cc1cc(Nc2ccnc3cc(Cl)ccc23)ccc1F

More lines, now with the values behind:

Structure (SMILES): CC(C)(C)NCc1cc(Nc2ccnc3cc(Cl)ccc23)ccc1Cl
ED50 (Plasmodium berghei): 13.4 mg/kg | ED90 (Plasmodium berghei): 27.3 mg/kg | CC50 at 6 h [4]: 120000 nM | Drug uptake (Kidney [5]): 5.43 %ID | logD [6]: 3 | IC50 [7]: 1.66 molar ratio | IC50 (Plasmodium falciparum [8]): 4.5 nM | Activity (Rattus norvegicus [9]): 4.52% | Activity [10]: 14.88% | Activity [11]: 14.9% | IC50 (Plasmodium falciparum [1]): 7.8 nM | Activity (Rattus norvegicus [12]): 11.39% | Drug uptake (Kidney [13]): 0.31 %ID | Drug uptake (Liver [14]): 12.41% | Activity (Rattus norvegicus [15]): 61% | Drug uptake (Lung): 0.25 %ID | Activity (Rattus norvegicus [16]): 60.76% | logP [17]: 5.59 | selectivity ratio [18]: 11900 | IC50 (Plasmodium falciparum [19]): 8.1 nM | Drug uptake (Liver [20]): 1.87 %ID

Structure (SMILES): Clc1ccc2c(Nc3ccc(Cl)c(CN4CCCC4)c3)ccnc2c1
IC50 (Plasmodium falciparum [8]): 4.2 nM | IC50 (Plasmodium falciparum [19]): 15.2 nM

Structure (SMILES): CCCCN(CCCC)Cc1cc(Nc2ccnc3cc(Cl)ccc23)ccc1F
IC50 (Plasmodium falciparum [1]): 95.2 nM

Structure (SMILES): CCN1CCN(Cc2cc(Nc3ccnc4cc(Cl)ccc34)ccc2Cl)CC1
IC50 (Plasmodium falciparum [8]): 10.3 nM | IC50 (Plasmodium falciparum [1]): 39.7 nM | IC50 (Plasmodium falciparum [19]): 9.6 nM

Structure (SMILES): Fc1ccc(Nc2ccnc3cc(Cl)ccc23)cc1CN1CCCC1
IC50 (Plasmodium falciparum [31]): 25 nM | IC50 (Plasmodium falciparum [32]): 36.9 nM | IC50 (Plasmodium falciparum [8]): 60.8 nM | IC50 (Plasmodium falciparum [33]): 45.9 nM | IC50 (Plasmodium falciparum [1]): 29.7 nM | IC50 (Plasmodium falciparum [34]): 34.7 nM | IC50 (Plasmodium falciparum [35]): 46.9 nM | IC50 (Plasmodium falciparum [36]): 52.5 nM | IC50 (Plasmodium falciparum [19]): 63.7 nM

Structure (SMILES): Clc1ccc2c(Nc3ccc(Cl)c(CN4CCCCC4)c3)ccnc2c1
IC50 (Plasmodium falciparum [8]): 9.4 nM | IC50 (Plasmodium falciparum [1]): 25.7 nM | IC50 (Plasmodium falciparum [19]): 12.3 nM

Structure (SMILES): CCCCN(CCCC)Cc1cc(Nc2ccnc3cc(Cl)ccc23)ccc1Cl
IC50 (Plasmodium falciparum [8]): 96.3 nM | IC50 (Plasmodium falciparum [1]): 345 nM | IC50 (Plasmodium falciparum [19]): 144 nM
